{"source": "patent US7691843B2", "about": "“N-hydroxyamide derivatives possessing antibacterial activity” (Pfizer Inc., priority 2002, dated 2010)", "format_in_all_cases": "in vivo", "key": {"[1]": {"tested_on": "Escherichia coli ATCC 25922", "assay": "Efficacy in murine E. coli septicemia", "conditions": "ATCC25922; ICR mice inoculated intraperitoneally with Escherichia coli ATCC 25922 at 4×10^4 CFU; administered intravenously 1 hour after inoculation (doses in mg/kg); mortality recorded 7 days; non-linear regression", "description": "(§1) Efficacy studies were performed in an E. coli murine septicemia model according to models published elsewhere (Goldstein, B. P., G. Candiani, T. M. Arain, G. Romano, I. Ciciliato, M. Berti, M. Abbondi, R. Scotti, M. Mainini, F. Ripamonti, and et al. 1995. Antimicrobial activity of MDL 63,246, a new semisynthetic glycopeptide antibiotic Antimicrob Agents Chemother. 39:1580-1588; Misiek, M., T. A. Pursiano, F. Leitner, and K. E. Price 1973. Microbiological properties of a new cephalosporin, BL-S 339: 7-(phenylacetimidoyl-aminoacetamido)-3-(2-methyl-1,3,4-thiadiazol-5-ylthio methyl)ceph-3-em-4-carboxylic acid Antimicrob Agents Chemother. 3:40-48).\nThe compound was dissolved in 10% DMSO, 0.1% Tween 80, 0.9% NaCl solution and administered intravenously at 10 ml/kg at 1 hour after bacterial inoculation. The compound was administered at 80, 40, 20, 5, 2.5, and 1.25 mg/kg. A control with ampicillin was included in the evaluation.\n(§2) Male or female ICR mice weighing 22±2 g from MDS Pharma Services were used for the evaluation. Food and water was given ad libitum. Groups of 6 mice weighing 22+g were used for the experiment. Mice were inoculated intraperitoneally with Escherichia coli ATCC 25922 at 4×10^4 CFU in 0.5 ml of Brain Heart Infusion Broth (Difco) containing 5% mucin (Sigma). Mortality was recorded once daily for 7 days following bacterial inoculation."}, "[2]": {"tested_on": "Proteus vulgaris ATCC 13315", "assay": "Efficacy in murine Proteus vulgaris septicemia", "conditions": "ATCC13315; ICR mice inoculated intraperitoneally with Proteus vulgaris ATCC 13315 at 1×10^8 CFU; administered intravenously 1 hour after inoculation (doses in mg/kg); mortality recorded 7 days; non-linear regression", "description": "as §1, with “P. vulgaris” for “E. coli”\n(§3) The compound was dissolved in 10% DMSO, 0.1% Tween 80, 0.9% NaCl solution and administered intravenously at 10 ml/kg at 1 hour after bacterial inoculation. The compound was administered at 20, 10, 5, 2.5, and 1.25 mg/kg. A control with ampicillin was included in the evaluation.\nas §2, with “24±2” for “22±2”, “24±g” for “22+g”, “Proteus vulgaris” for “Escherichia coli”, “13315” for “25922”, “1×10^8” for “4×10^4”"}, "[3]": {"tested_on": "Klebsiella pneumoniae ATCC 10031", "assay": "Efficacy in murine Klebsiella pneumoniae septicemia", "conditions": "ATCC10031; ICR mice inoculated intraperitoneally with Klebsiella pneumoniae ATCC 10031 at 3×10^7 CFU; administered intravenously 1 hour after inoculation (doses in mg/kg); mortality recorded 7 days; non-linear regression", "description": "as §1, with “K. pneumoniae” for “E. coli”\nas §3\nas §2, with “24±2” for “22±2”, “24±g” for “22+g”, “Klebsiella pneumoniae” for “Escherichia coli”, “10031” for “25922”, “3×10^7” for “4×10^4”"}}, "data": [{"smiles": "CC1(C)S[C@@H]2[C@H](NC(=O)[C@H](N)c3ccccc3)C(=O)N2[C@H]1C(=O)O", "note": "[ampicillin]", "values": [{"measurement": "ED50", "setting": "[1]", "result": 14.1, "unit": "mg/kg"}, {"measurement": "ED50", "setting": "[2]", "result": 29.7, "unit": "mg/kg"}, {"measurement": "ED50", "setting": "[3]", "result": 6.8, "unit": "mg/kg"}]}]}
